From article PMC10816625, “Targeting Alzheimer’s Disease: Evaluating the Efficacy of C-1 Functionalized N-Aryl-Tetrahydroisoquinolines as Cholinergic Enzyme Inhibitors and Promising Therapeutic Candidates” (International Journal of Molecular Sciences, 2024)
Entries after “also recorded” stand apart in the source; their conditions may differ.

Legend:
[1] = target: T1, eeAChE (Electrophorus electricus, UniProt O42275); experiment: biochemical; type: biochemical; settings: for Selectivity Index for AChE: IC50(BChE)/IC50(AChE); for IC50: Table 1, mean ± SD
T1 construct: purchased Sigma-Aldrich C3389
Procedure: (§1) The abilities of synthesized 22 compounds to inhibit AChE and BuChE activity were determined following Ellman’s procedure using a Perkin Elmer Lambda 35 spectrophotometer with thermostated 1.00 cm quartz cells. AChE’s and BuChE’s stock solutions were diluted with 20 mM TRIS to give 1 unit per mL of enzymes’ activity. […] A 0.01 M DTNB solution was prepared with 0.1 M phosphate buffer (pH 7) containing 0.15% (w/v) sodium bicarbonate. A 0.1 M phosphate buffer (pH 8) was used for assay. pH was adjusted to 8.0 ± 0.1 by adding aliquots of concentrated HCl. Stock solutions (10 mM) of investigated compounds were prepared daily by dissolving solid compounds in DMSO. Diluted solutions were also prepared in DMSO.
(§2) Briefly, enzymes’ assays were prepared as follows. […] Thereafter, 20 μL of ASChI or BSChCI was added, after which the reaction was initiated. […] For the blank value, the addition of 20 μL of buffer replaced the enzyme solution while an addition of 7 μL of DMSO replaced the inhibitor solution. The control solution contained 7 μL of DMSO instead of the inhibitor. The screening test was performed at a 1 × 10^−5 M concentration, and the compounds with more than 50% of inhibition were further assayed using dilution series of up to eight increasing concentrations (10^−5 M to 10^−9 M). The inhibition potency was presented as the dependence on the relative enzyme activity (REA) as the function of the compound’s concentration. IC50 values were determined graphically from Hill curves using Origin 9 Microsoft Windows.

[2] = target: T2, eqBuChE (Equus caballus, UniProt P81908); experiment: biochemical; settings: Table 1; preincubation 6 min, incubation 6 min, 37 °C; mean ± SD; read-out: IC50 BuChE
T2 construct: butyrylcholinesterase (BuChE) from horse serum (C1057); purchased Sigma-Aldrich C1057; host or cells: horse serum
Procedure: as §1, §2

[3] = target: T3, AChE (Electrophorus electricus, UniProt O42275); experiment: Kinetic study of AChE inhibition (Lineweaver-Burk); type: biochemical; settings: for Type of Inhibition (AChE): Lineweaver-Burk plot; for Ki: preincubation 6 min, incubation 2 min
T3 construct: purchased Sigma-Aldrich C3389
Procedure: (§3) Kinetic studies of ChE enzymes were also performed using the above-mentioned modified Ellman’s method. The preincubation time was 6 min, while the incubation time was 2 min. The type of enzyme inhibition was justified by the Lineweaver–Burk plot (double reciprocal plot) for selected inhibitor concentrations, and substrate concentrations ranged from 0.01 to 1 mM. The kinetic parameters Km, Vmax, and Ki were determined. Graphs were plotted using Origin9 for Microsoft Windows.

[4] = target: T4, BuChE (Equus caballus, UniProt P81908); experiment: Kinetic study of BuChE inhibition (Lineweaver-Burk); type: biochemical
T4 construct: butyrylcholinesterase (BuChE) from horse serum (C1057); purchased Sigma-Aldrich C1057; host or cells: horse serum
Procedure: as §3

[5] = target: T3, AChE; experiment: Trp fluorescence-quenching titration of AChE; type: binding; settings: 5 IU/mL AChE
Procedure: (§4) Fluorescence titration studies were conducted using the Agilent Cary Eclipse fluorescence spectrophotometer. Fluorescence-quenching spectra were recorded within the wavelength range of 320–450 nm, with an excitation at 295 nm at room temperature. Excitation and emission slit widths were both set at 5 nm, and the scanning rate was fixed at 9600 nm/min. The concentration of enzymes was 5 IU/mL. The incubation time between each addition of THIQ aliquots was 6 min.

[6] = target: T4, BuChE; experiment: Trp fluorescence titration of BuChE; type: binding; settings: 5 IU/mL BuChE
Procedure: as §4

[7] = logP determination by UPLC; type: physicochemical; settings: reversed-phase ACQUITY UPLC BEH C18 column; UPLC method
Procedure: . The column used for logP determinations was ACQUITY UPLC BEH C18 column with the dimensions 1.7 μm × 100 mm × 2.1 mm (Waters). The measurements were performed in the isocratic mode. The eluent flow rate was 0.25 mL min^−1, and the injection volume was 5 μL. The mobile phase composition was a different percentage of acetonitrile and H2O (we ran a chromatogram for each compound with different eluent compositions and the acetonitrile fraction ranging from 64% to 91%). The wavelength of the optical detection was 256 nm, the retention times for every examined compound under certain experimental conditions were determined. At the beginning, the compound’s retention factor, k’, was determined for different percentages of acetonitrile in the mobile phases. The column’s dead time was determined by the injection of sodium bromide. After that, the retention factors for a pure aqueous eluent (log kw) were determined for the compounds with previously known logPo/w values as well as for the investigated compounds. […]

[8] = in vitro; settings: for PAMPA-BBB Permeability Pe: porcine polar brain lipids, UPLC quantification; for Papp: pig, PAMPA
Procedure: The assay was performed according to the method reported by Di et al. with slight modification. Commercial drugs, verapamil, and caffeine were used to validate the protocol. […] Each sample was analyzed with at least three independent experiments in three wells.

[9] = preincubation 6 min, incubation 6 min, 37 °C
[10] = excitation 295 nm, room temperature

T2 sequence (P81908 whole entry): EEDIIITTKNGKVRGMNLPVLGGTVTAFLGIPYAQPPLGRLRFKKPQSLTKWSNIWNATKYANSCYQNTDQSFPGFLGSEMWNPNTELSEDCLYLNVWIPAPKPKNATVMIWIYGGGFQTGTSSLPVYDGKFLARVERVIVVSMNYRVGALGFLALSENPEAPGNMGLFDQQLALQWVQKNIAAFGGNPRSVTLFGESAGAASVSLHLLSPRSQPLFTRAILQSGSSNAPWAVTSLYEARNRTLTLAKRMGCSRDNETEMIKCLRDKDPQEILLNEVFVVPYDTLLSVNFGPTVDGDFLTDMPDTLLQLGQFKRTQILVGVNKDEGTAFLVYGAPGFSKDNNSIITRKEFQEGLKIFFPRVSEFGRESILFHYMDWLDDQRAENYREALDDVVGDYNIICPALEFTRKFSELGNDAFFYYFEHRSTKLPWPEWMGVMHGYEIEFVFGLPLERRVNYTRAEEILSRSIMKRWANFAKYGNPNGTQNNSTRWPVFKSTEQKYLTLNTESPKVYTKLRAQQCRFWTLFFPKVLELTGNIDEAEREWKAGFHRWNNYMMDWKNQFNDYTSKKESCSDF
T4 sequence (P81908 whole entry): as above
T1 sequence (O42275 24-633): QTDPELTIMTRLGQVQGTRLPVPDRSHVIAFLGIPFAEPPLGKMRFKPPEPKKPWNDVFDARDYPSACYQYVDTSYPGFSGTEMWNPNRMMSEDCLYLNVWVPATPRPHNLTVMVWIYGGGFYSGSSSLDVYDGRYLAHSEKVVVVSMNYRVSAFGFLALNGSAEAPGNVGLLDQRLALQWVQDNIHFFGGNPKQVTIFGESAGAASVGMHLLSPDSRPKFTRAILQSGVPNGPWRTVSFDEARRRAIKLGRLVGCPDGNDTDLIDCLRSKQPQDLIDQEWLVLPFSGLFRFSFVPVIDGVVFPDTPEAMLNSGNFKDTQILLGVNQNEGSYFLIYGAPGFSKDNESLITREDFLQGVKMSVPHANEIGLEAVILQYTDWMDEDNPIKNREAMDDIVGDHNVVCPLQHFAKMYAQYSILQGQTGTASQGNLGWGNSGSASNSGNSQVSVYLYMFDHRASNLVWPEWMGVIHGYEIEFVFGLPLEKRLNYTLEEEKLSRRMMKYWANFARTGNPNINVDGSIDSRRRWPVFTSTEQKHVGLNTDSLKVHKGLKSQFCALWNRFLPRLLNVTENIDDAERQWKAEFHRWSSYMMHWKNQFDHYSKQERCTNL
T3 sequence (O42275 24-633): as above

SMILES | Selectivity Index for AChE [1] | IC50 [1, 9] [µM] | IC50 [2] [µM] | further results
O=C(CC1c2ccccc2CCN1c1ccccc1)c1ccccc1 (stereo not shown) [Compound 3a] | 1.93 | 4.29 ± 0.09 | 8.26 ± 1.05 | 
O=C(CCc1ccccc1)CCC1c2ccccc2CCN1c1ccccc1 (stereo not shown) [Compound 3i] | 2.45 | 1.11 ± 0.04 | 2.72 ± 0.2 | Type of Inhibition (AChE) [3]: Non-competitive; Ki [3]: 1.06 ± 0.01 µM; Type of Inhibition (BuChE) ([4]; Lineweaver-Burk plot): mixed type of inhibition (non-competitive/uncompetitive); also recorded: Mix non-competitive/uncompetitive; Ki ([4]; preincubation 6 min, incubation 2 min): 1.04 ± 0.1 µM; Quenching of Trp fluorescence of AChE [5]: quenching of Trp fluorescence was observed; n (number of binding sites) [5]: 0.94 ± 0.04; Ksv [5, 10]: (6.96 ± 0.05) × 10^4 M^−1; kq (bimolecular quenching constant) [5, 10]: (6.96 ± 0.05) × 10^14 M^−1s^−1; Effect on Trp fluorescence of BuChE [6]: fluorescence intensity of BuChE was increased; chromatographic logP [7]: 3.78; PAMPA-BBB Permeability Pe [8]: impossible to be detected; also recorded: High hydrophobicity; it retained in the membrane
N#CC1c2ccccc2CCN1c1ccccc1 (stereo not shown) [Compound 4a] |  | > 10 | > 10 | 
COc1ccc(N2CCc3ccccc3C2CC(=O)c2ccccc2)cc1 (stereo not shown) [Compound 3b] |  | 9.05 ± 0.81 | > 10 | 
c1ccc(N2CCc3ccccc3C2)cc1 [Compound 1a, N-phenyl-1,2,3,4-tetrahydroisoquinoline] |  | > 10 | > 10 | Residual Activity at 1 × 10^−5 M AChE ([1]; 1 × 10^−5 M, preincubation 6 min, incubation 6 min, 37 °C): did not show inhibition potential
COc1cc2c(cc1OC)C(CC(=O)c1ccccc1)N(c1ccccc1)CC2 (stereo not shown) [Compound 3c] | >5 | 1.95 ± 0.23 | > 10 | fold increase in inhibitory activity towards AChE ([1]; compared to compound 2c): 2.5 fold; Type of Inhibition (AChE) [3]: Non-competitive; Ki [3]: 1.78 ± 0.1 µM; Quenching of Trp fluorescence of AChE [5]: no quenching of Trp fluorescence; chromatographic logP [7]: 3.39; Papp [8]: 47.5 ×10⁻⁶ cm/s; PAMPA-BBB Permeability Pe [8]: successfully crossed the artificial blood−brain barrier; also recorded: able to cross the BBB
COc1cc2c(cc1OC)C(CC(C)=O)N(c1ccccc1)CC2 (stereo not shown) [Compound 2c] |  | 5.04 ± 0.28 | > 10 | 
CC(=O)CC1c2ccccc2CCN1c1ccccc1 (stereo not shown) [Compound 2a] |  | > 10 | > 10 | 
COc1cc2c(cc1OC)C(CC(=O)c1ccccc1)N(c1ccc(F)cc1)CC2 (stereo not shown) [Compound 3d] |  | 4.89 ± 0.15 | > 10 | fold lower inhibitory activity towards AChE ([1]; compared to unsubstituted 3c): 2.5 fold
COc1cc2c(cc1OC)C(CC(C)=O)N(c1ccc(F)cc1)CC2 (stereo not shown) [Compound 2d] |  | > 10 | > 10 | 
COc1cc2c(cc1OC)C(C#N)N(c1ccc(F)cc1)CC2 (stereo not shown) [Compound 4b] |  | > 10 | > 10 | 
COc1cc2c(cc1OC)C(CC(=O)c1ccccc1)N(c1ccc(C)cc1)CC2 (stereo not shown) [Compound 3e] |  | > 10 |  | 
COc1cc2c(cc1OC)C(CCC(=O)CCc1ccccc1)N(c1ccccc1)CC2 (stereo not shown) [Compound 3k] |  | 4.02 ± 0.19 | > 10 | 
Cn1c(=O)c2c(ncn2C)n(C)c1=O [Caffeine, reference compound] |  |  |  | Papp [8]: 1.47 ×10⁻⁶ cm/s
O=C(CCc1ccccc1)CCC1c2ccccc2CCN1c1ccc(F)cc1 (stereo not shown) [Compound 3j] | 1.55 | 2.91 ± 0.09 | 4.52 ± 0.15 | 
CCC(=O)CC1c2cc(OC)c(OC)cc2CCN1c1ccccc1 (stereo not shown) [Compound 2e] |  | > 10 |  | 
COc1cc2c(cc1OC)C(CCC(=O)c1ccccc1)N(c1ccc(F)cc1)CC2 (stereo not shown) [Compound 3h] |  | > 10 | > 10 | 
CC(=O)CC1c2ccccc2CCN1c1ccc(F)cc1 (stereo not shown) [Compound 2b] | 1.63 | 5.46 ± 0.58 | 8.9 ± 2.03 | 
COc1cc2c(cc1OC)C(CCC(=O)c1ccccc1)N(c1ccccc1)CC2 (stereo not shown) [Compound 3g] | 1.18 | 6.78 ± 0.22 | 8.01 ± 0.55 | 
O=C(CCC1c2ccccc2CCN1c1ccccc1)c1ccccc1 (stereo not shown) [Compound 3f] | 2.59 | 2.42 ± 0.09 | 6.28 ± 0.36 | chromatographic logP [7]: 3.66; PAMPA-BBB Permeability Pe [8]: impossible to be detected; also recorded: High hydrophobicity; it retained in the membrane
COc1cc2c(cc1OC)C(C#N)N(c1ccc(C)cc1)CC2 (stereo not shown) [Compound 4c] |  | > 10 | > 10 | 
COc1cc2c(cc1OC)C(CCC(=O)CCc1ccccc1)N(c1ccc(F)cc1)CC2 (stereo not shown) [Compound 3l] |  | > 10 | > 10 | 
